In patent publication US20260286396A1, “AXL KNOCK OUT CAR T CELLS AND METHODS FOR USE THEREOF” (priority 2023, published 2026):

System: CART19 cells
Assay: RNA sequencing of CART19 cells with Ingenuity pathway analysis (pathways, upstream regulators)
Format: cell-based, human
Description: CART19 cells were isolated using CD4 and CD8 microbeads to […] the JeKo-1 target cells; this isolation step was performed twice to eliminate the possible contamination of JeKo-1 cells. RNA was isolated from the CART19 cells using QIAGEN RNEASY® Plus Mini Kit. RNA was further treated with DNase I (QIAGEN) and purified using RNA Clean & Concentrator (Zymo Research). […] The fastq files were viewed in FastQC to check for quality (Cox et al., Mol Ther., 29 (4): 1529-1540, 2020). After verifying the lack of adapter sequences with FastQC, Cutadapt (Martin, EMBnet, 17:10-12, 2011) was used to filter for reads greater than 32 base pairs. Output files were re-checked for quality using FastQC. The latest human reference genome (GRCh38.p13) was downloaded from NCBI. Genome index files were generated using STAR (Cox et al. 2020, supra, and Dobin et al., Bioinformatics, 29:15-21, 2012). Paired end reads from fastq files were mapped to the genome for each condition. HTSeq was used to generate expression counts for each gene (Cox et al. 2020, supra; and Putri et al., Bioinformatics, 38:2943-2945, 2022). […] The disruption efficiency of the CRISPR/Cas9 GM-CSF knockout was determined using targeted sequencing through PCR and TIDE analysis (software available at tide.nki.nl) as described elsewhere (Sakemura et al. 2021, supra).
RNA sequencing of CART19 cells was then performed. […] Data were analyzed with the use of QIAGEN Ingenuity Pathway Analysis (IPA) (digitalinsights.qiagen.com/IPA; Krämer et al., Bioinformatics 30 (4): 523-530, 2014).

[1] = Upstream Regulator KLF11, 30 nM, 24 hours vs vehicle
[2] = Upstream Regulator LAMA4, 30 nM, 24 hours vs vehicle
[3] = Upstream Regulator LARP1, flag bias, 30 nM, 24 hours vs vehicle
[4] = Upstream Regulator MFSD2A, 30 nM, 24 hours vs vehicle
[5] = Upstream Regulator MSC, 30 nM, 24 hours vs vehicle
[6] = Upstream Regulator MYC, 30 nM, 24 hours vs vehicle
[7] = Upstream Regulator MYCN, 30 nM, 24 hours vs vehicle
[8] = Upstream Regulator NELFB, 30 nM, 24 hours vs vehicle
[9] = Upstream Regulator NFAT5, 30 nM, 24 hours vs vehicle
[10] = Upstream Regulator NR3C1, 30 nM, 24 hours vs vehicle
[11] = Upstream Regulator NT5E, 30 nM, 24 hours vs vehicle
[12] = Upstream Regulator NUPR1, 30 nM, 24 hours vs vehicle
[13] = Upstream Regulator PAX5, 30 nM, 24 hours vs vehicle
[14] = Upstream Regulator PDGFB, 30 nM, 24 hours vs vehicle
[15] = Upstream Regulator REL, 30 nM, 24 hours vs vehicle
[16] = Upstream Regulator RXRB, 30 nM, 24 hours vs vehicle
[17] = Upstream Regulator SATB1, 30 nM, 24 hours vs vehicle
[18] = Upstream Regulator SHC1, 30 nM, 24 hours vs vehicle
[19] = Upstream Regulator SMAD3, 30 nM, 24 hours vs vehicle
[20] = Upstream Regulator STAT3, 30 nM, 24 hours vs vehicle
[21] = Upstream Regulator STAT6, 30 nM, 24 hours vs vehicle
[22] = Upstream Regulator STIM1, 30 nM, 24 hours vs vehicle
[23] = Upstream Regulator SYK, 30 nM, 24 hours vs vehicle
[24] = Upstream Regulator TAFAZZIN, 30 nM, 24 hours vs vehicle
[25] = Upstream Regulator TCF3, 30 nM, 24 hours vs vehicle
[26] = Upstream Regulator TCF12, 30 nM, 24 hours vs vehicle
[27] = Upstream Regulator TCR, 30 nM, 24 hours vs vehicle
[28] = Upstream Regulator TFRC, 30 nM, 24 hours vs vehicle
[29] = Upstream Regulator TGF BETA, 30 nM, 24 hours vs vehicle
[30] = Upstream Regulator TGFB2, 30 nM, 24 hours vs vehicle
[31] = Upstream Regulator TIGIT, 30 nM, 24 hours vs vehicle
[32] = Upstream Regulator TLR9, 30 nM, 24 hours vs vehicle
[33] = Upstream Regulator TNF, 30 nM, 24 hours vs vehicle
[34] = Upstream Regulator USP38, 30 nM, 24 hours vs vehicle
[35] = Upstream Regulator ZBTB16, 30 nM, 24 hours vs vehicle
[36] = upstream regulator ACE, CART19 stimulated with JeKo-1, 30 nM TP-0903 vs vehicle, 24 hours
[37] = upstream regulator AMBRA1, CART19 stimulated with JeKo-1, 30 nM TP-0903 vs vehicle, 24 hours
[38] = upstream regulator CCR2, CART19 stimulated with JeKo-1, 30 nM TP-0903 vs vehicle, 24 hours
[39] = upstream regulator CIP2A, CART19 stimulated with JeKo-1, 30 nM TP-0903 vs vehicle, 24 hours
[40] = upstream regulator ERBB3, CART19 stimulated with JeKo-1, 30 nM TP-0903 vs vehicle, 24 hours
[41] = upstream regulator HGF, CART19 stimulated with JeKo-1, 30 nM TP-0903 vs vehicle, 24 hours
[42] = upstream regulator IKBKG, CART19 stimulated with JeKo-1, 30 nM TP-0903 vs vehicle, 24 hours
[43] = upstream regulator IL7, CART19 stimulated with JeKo-1, 30 nM TP-0903 vs vehicle, 24 hours
[44] = upstream regulator PPARD, CART19 stimulated with JeKo-1, 30 nM TP-0903 vs vehicle, 24 hours
[45] = upstream regulator SMAD4, CART19 stimulated with JeKo-1, 30 nM TP-0903 vs vehicle, 24 hours

## CN1CCN(Cc2ccc(Nc3ncc(Cl)c(Nc4ccccc4S(=O)(=O)N(C)C)n3)cc2)CC1 [TP-0903, Dubermatinib]
[1]
  Expr Log Ratio: −0.037
  Predicted Activation State: inhibited
[2]
  Activation Z-Score: 2.985
  Expr Log Ratio: −1.478
  Predicted Activation State: activated
Upstream Regulator LARP1, 30 nM, 24 hours vs vehicle
  Expr Log Ratio: −0.22
[3]
  Activation Z-Score: 3.461
  Predicted Activation State: activated
Upstream Regulator MED12, 30 nM, 24 hours vs vehicle
  Expr Log Ratio: 0.075
Upstream Regulator MEK, 30 nM, 24 hours vs vehicle
  Activation Z-Score: −1.682
[4]
  Activation Z-Score: 2.219
  Expr Log Ratio: −0.204
  Predicted Activation State: activated
Upstream Regulator MIR-34A-5P (AND OTHER MIRNAS W/SEED GGCAGUG), flag bias, 30 nM, 24 hours vs vehicle
  Activation Z-Score: 0.22
Upstream Regulator MIR-155-5P (MIRNAS W/SEED UAAUGCU), flag bias, 30 nM, 24 hours vs vehicle
  Activation Z-Score: 1.95
Upstream Regulator MIR-155, 30 nM, 24 hours vs vehicle
  Activation Z-Score: 0.713
[5]
  Activation Z-Score: 0.707
  Expr Log Ratio: 0.103
[6]
  Activation Z-Score: −1.663
  Expr Log Ratio: −0.584
[7]
  Activation Z-Score: −2.592
  Expr Log Ratio: −0.217
  Predicted Activation State: inhibited
[8]
  Activation Z-Score: −1
  Expr Log Ratio: 0.032
[9]
  Activation Z-Score: −0.466
  Expr Log Ratio: −0.006
[10]
  Activation Z-Score: 0.182
  Expr Log Ratio: 0.097
[11]
  Activation Z-Score: 0.447
  Expr Log Ratio: 0.513
[12]
  Activation Z-Score: 0.396
  Expr Log Ratio: 1.017
[13]
  Activation Z-Score: −1.01
  Expr Log Ratio: −0.607
Upstream Regulator PDGF BB, 30 nM, 24 hours vs vehicle
  Activation Z-Score: −0.275
[14]
  Activation Z-Score: −1.513
  Expr Log Ratio: 0.018
Upstream Regulator PKA, 30 nM, 24 hours vs vehicle
  Activation Z-Score: −1.077
Upstream Regulator PKC(S), 30 nM, 24 hours vs vehicle
  Activation Z-Score: 1.03
Upstream Regulator POU2F2, 30 nM, 24 hours vs vehicle
  Expr Log Ratio: −0.143
Upstream Regulator POU2F2, flag bias, 30 nM, 24 hours vs vehicle
  Activation Z-Score: −1
[15]
  Activation Z-Score: −0.988
  Expr Log Ratio: 0.266
[16]
  Activation Z-Score: 1.155
  Expr Log Ratio: −0.076
[17]
  Activation Z-Score: −1.359
  Expr Log Ratio: −0.104
[18]
  Activation Z-Score: 0.963
  Expr Log Ratio: 0.076
[19]
  Activation Z-Score: −1.454
  Expr Log Ratio: 0.337
[20]
  Activation Z-Score: −1.117
  Expr Log Ratio: 0.116
[21]
  Activation Z-Score: −2.16
  Expr Log Ratio: −0.088
  Predicted Activation State: inhibited
[22]
  Activation Z-Score: −3
  Expr Log Ratio: 0.123
  Predicted Activation State: inhibited
[23]
  Activation Z-Score: −1.203
  Expr Log Ratio: −0.298
[24]
  Activation Z-Score: 0
  Expr Log Ratio: −0.111
[25]
  Activation Z-Score: −0.213
  Expr Log Ratio: −0.061
[26]
  Activation Z-Score: −0.207
  Expr Log Ratio: 0.077
[27]
  Activation Z-Score: −2.683
  Predicted Activation State: inhibited
[28]
  Activation Z-Score: 2.335
  Expr Log Ratio: −0.051
  Predicted Activation State: activated
[29]
  Activation Z-Score: −2.031
  Predicted Activation State: inhibited
[30]
  Activation Z-Score: −1.591
  Expr Log Ratio: −1.361
[31]
  Activation Z-Score: −1.982
  Expr Log Ratio: 0.2
[32]
  Activation Z-Score: −0.796
  Expr Log Ratio: −0.186
[33]
  Activation Z-Score: −2.543
  Predicted Activation State: inhibited
Upstream Regulator TP53, 30 nM, 24 hours vs vehicle
  Expr Log Ratio: 0.089
[34]
  Activation Z-Score: −1.213
  Expr Log Ratio: −0.109
[35]
  Activation Z-Score: −0.683
  Expr Log Ratio: −0.061
[36]
  Activation Z-Score: 1
  Expr Log Ratio: −1.023
[37]
  Activation Z-Score: 1.808
  Expr Log Ratio: −0.003
[38]
  Activation Z-Score: 0.314
  Expr Log Ratio: −1.545
[39]
  Activation Z-Score: 0
  Expr Log Ratio: 0.131
[40]
  Activation Z-Score: −1
  Expr Log Ratio: −1.599
Upstream regulator GPD1, CART19 stimulated with JeKo-1, 30 nM TP-0903 vs vehicle, 24 hours
  Expr Log Ratio: 0.348
[41]
  Activation Z-Score: −0.973
  Expr Log Ratio: −0.131
[42]
  Activation Z-Score: −0.788
  Expr Log Ratio: 0.136
[43]
  Activation Z-Score: −0.288
  Expr Log Ratio: 0.684
Upstream regulator LET-7A-5P (AND OTHER MIRNAS W/SEED GAGGUAG), flag bias, CART19 stimulated with JeKo-1, 30 nM TP-0903 vs vehicle, 24 hours
  Activation Z-Score: 1.25
Upstream regulator NFKB (COMPLEX), CART19 stimulated with JeKo-1, 30 nM TP-0903 vs vehicle, 24 hours
  Activation Z-Score: −1.386
Upstream regulator PI3K (COMPLEX), CART19 stimulated with JeKo-1, 30 nM TP-0903 vs vehicle, 24 hours
  Activation Z-Score: −1.952
[44]
  Activation Z-Score: −0.089
  Expr Log Ratio: −0.036
Upstream regulator SCGB1A1, CART19 stimulated with JeKo-1, 30 nM TP-0903 vs vehicle, 24 hours
  Activation Z-Score: 1.993
[45]
  Activation Z-Score: −0.02
  Expr Log Ratio: −0.097
Upstream regulator TFPI2, CART19 stimulated with JeKo-1, 30 nM TP-0903 vs vehicle, 24 hours
  Activation Z-Score: 1.131
